Reference: patent US9248134B1, “Fe(III) complex compounds for the treatment and prophylaxis of iron deficiency symptoms and iron deficiency anemias” (Vifor (International) AG, priority 2013, dated 2016)

tested on: Male NMRI (SPF) mice fed a low-iron diet; assay: Iron utilization in mouse model (low-iron diet); type: in vivo; conditions: stomach tube, 2 mg iron/kg body weight/day, days 1-5 and 8-12; utilization on day 15 calculated from hemoglobin increase and body weight increase
Method: The excellent Fe utilizations that can be accomplished through the Fe complexes according to the invention were measured by means of the following mouse model.
Male NMRI (SPF) mice (approximately 3 weeks old) were fed a low-iron diet (approx. 5 ppm iron) for approximately 3 weeks. The iron complexes were then administered to them by means of a stomach tube (2 mg iron/kg body weight/day) for 2 times 5 days, with an interruption of 2 days (days 1-5 and 8-12). 6 mice were the control group (negative control) and were administered with water instead. Utilization on day 15 was calculated from the hemoglobin increase and the body weight increase in accordance with the formula
[formula] • 0.07=Factor for 70 ml blood per kg body weight (BW) • 0.0034=Factor for 0.0034 g Fe/g Hb • Hb1=Hemoglobin level (g/l) on day 1 • Hb2(3)=Hemoglobin level (g/l) on day 8 (or 15) • BW4=body weight (g) on day 1 • BW9(14)=body weight (g) on day 8 (or 15) • Hb1 Control=average hemoglobin level (g/l) on day 1 in the control group, • Hb2(3) Control=average hemoglobin level (g/l) on day 8 (or 15) in the control group, • BW4 Control=average body weight (g) on day 1 in the control group, • BW9(14) Control=average body weight (g) on day 8 (or 15) in the control group, • Fe Dos.=entire administered iron (mg Fe) over 5 or 10 days, • Fe ut.=(Hb2(3)*BW9(14)−Hb1*BW4)*0.07*0.0034 (mg Fe) • Δ Utilization=Fe tot. utilized (examined group)−Fe ut. Control group, utilized from food, (mg Fe)

Substance | Utilization n 15 d (abs. %)
Tris-(3-hydroxy-N,N-dimethylisonicotinamide) iron(III) complex [Example 1] | 68
Tris-(3-hydroxy-N-(2-methoxyethyl)isonicotinamide) iron(III) complex [Example 7] | 76
Tris-(N-butyl-3-hydroxyisonicotinamide) iron(III) complex [Example 6] | 76
